# Measurements reported in ChEMBL document CHEMBL6182868, “Structural simplification of quaternary benzophenanthridine alkaloids generating a candidate for the treatment of non-small cell lung cancer” (Eur J Med Chem, 2025).
# Calls of active or inactive are those of the source. The calls are words filed in the database; no cut-off is given here.
# Tests used:
# [1] = system: A549; test: Cytotoxicity against human A549 cells incubated for 24 to 48 hrs by MTT assay; assay type: functional, cell-based
# [2] = Inhibition of TrxR (unknown origin) incubated for 2 hrs in presence of NADPH by DTNB assay; parameters: species or system Homo sapiens
# [3] = system: HepG2; test: Cytotoxicity against human HepG2 cells incubated for 24 to 48 hrs by MTT assay; assay type: functional, cell-based
# [4] = system: HeLa; test: Cytotoxicity against human HeLa cells incubated for 24 to 48 hrs by MTT assay; assay type: functional, cell-based
# [5] = GSH reactivity in TE buffer assessed as remaining concentration of compound incubated 1 to 4 hrs at 37 degreeC by HPLC analysis; assay type: physicochemical; conditions: TE buffer with GSH, time 1-4 hrs, read-out: Stability
# [6] = system: A549; test: Induction of oxidative stress in human A549 cells assessed as increase in GSSG levels at 1 to 5 uM incubated for 24 hrs by microplate reader analysis; assay type: functional, cell-based; conditions: dose 1-5 µM
# [7] = system: A549; test: Induction of apoptosis in human A549 cells assessed as increase in Bax protein expression at 2 to 5 uM incubated for 24 hrs by Western blot analysis; assay type: functional, cell-based; conditions: dose 2-5 µM
# [8] = system: A549; test: Induction of apoptosis in human A549 cells assessed as conversion of caspase 3 to cleaved caspase 3 at 2 to 5 uM incubated for 24 hrs by Western blot analysis; assay type: functional, cell-based; conditions: dose 2-5 µM
# [9] = system: A549; test: Antitumor activity against ip dosed human A549 cells xenografted in male BALB/c nude mouse assessed as tumor weight administered and measured every 3 days for 21 days; assay type: functional, organism-based; conditions: dose 3-6 mg/kg, time 21.0 day
# [10] = Toxicity in male BALB/c nude mouse xenografted with human A549 cells assessed as effect on liver at 3 to 6 mg/kg, ip administered for 21 days; assay type: organism-based; conditions: in vivo, 504 h, dose 3-6 mg/kg, time 21 day
# [11] = Toxicity in male BALB/c nude mouse xenografted with human A549 cells assessed as effect on kidney at 3 to 6 mg/kg, ip administered for 21 days; assay type: organism-based; conditions: in vivo, 504 h, dose 3-6 mg/kg, time 21 day
# [12] = Tmax in Sprague-Dawley rat at 10 mg/kg, po measured up to 24 hrs by LC-MS/MS analysis; assay type: ADME, organism-based; conditions: in vivo
# [13] = system: A549; test: Induction of ROS accumulation in human A549 cells assessed as increase in fluorescence intensity incubated for 6 hrs by DCFH-DA/DHE staining based analysis; assay type: functional, cell-based; conditions: dose 1-5 µM
# [14] = system: A549; test: Induction of oxidative stress in human A549 cells assessed as decrease in intracellular total thiol levels at 5 uM incubated for 24 hrs by DTNB titration based microplate reader analysis relative to control; assay type: functional; parameters: scale not given: the % may be the effect or the level left
# [15] = system: A549; test: Induction of oxidative stress in human A549 cells assessed as decrease in GSH/GSSG ratio at 1 to 5 uM incubated for 24 hrs by microplate reader analysis; assay type: functional, cell-based; conditions: dose 1-5 µM
# [16] = system: A549; test: Antitumor activity against human A549 cells xenografted in male BALB/c nude mouse assessed as tumor growth inhibition at 3 to 6 mg/kg, ip administrated for every 3 days and measured after 21 days relative to control; assay type: functional; conditions: dose 3-6 mg/kg, time 21 day
# [17] = system: HeLa; test: Cytotoxicity against human HeLa cells harboring shNT-negative control assessed as cell viability at 1 to 5 uM incubated for 48 hrs by MTT assay; assay type: functional, cell-based; conditions: dose 1-5 µM
# [18] = Toxicity in male BALB/c nude mouse xenografted with human A549 cells assessed as effect on lung at 3 to 6 mg/kg, ip administered for 21 days; assay type: organism-based; conditions: in vivo, 504 h, dose 3-6 mg/kg, time 21 day
# [19] = system: A549; test: Induction of oxidative stress in human A549 cells assessed as activation of ERK pathway by measuring change in protein level incubated for 24 hrs; assay type: functional, cell-based
# [20] = Toxicity in male BALB/c nude mouse xenografted with human A549 cells assessed as effect on heart at 3 to 6 mg/kg, ip administered for 21 days; assay type: organism-based; conditions: in vivo, 504 h, dose 3-6 mg/kg, time 21 day
# [21] = Inhibition of TrxR in human A549 cells incubated for 24 hrs by endpoint insulin reduction assay; assay type: cell-based
# [22] = system: A549; test: Antitumor activity against ip dosed human A549 cells xenografted in male BALB/c nude mouse assessed as tumor size administered and measured every 3 days for 21 days; assay type: functional, organism-based; conditions: dose 3-6 mg/kg, time 21.0 day
# [23] = system: A549; test: Induction of apoptosis in human A549 cells assessed as decrease in Bcl-2 protein expression at 2 to 5 uM incubated for 24 hrs by Western blot analysis; assay type: functional, cell-based; conditions: dose 2-5 µM
# [24] = system: A549; test: Cytotoxicity against human A549 cells assessed as cell viability at 1 to 20 uM cotreated with NAC incubated for 24 hrs by MTT assay; assay type: functional, cell-based; conditions: dose 1-20 µM
# [25] = system: A549; test: Induction of apoptosis in human A549 cells assessed as increase in blue fluorescence at 1 to 5 uM incubated for 24 hrs by Hoechst 33342 staining based fluorescence microscopic analysis; assay type: functional, cell-based; conditions: dose 1-5 µM
# [26] = system: A549; test: Induction of apoptosis in human A549 cells assessed as increase in caspase 3 activation incubated for 24 hrs by colorimetric assay; assay type: functional, cell-based; conditions: dose 1-5 µM
# [27] = system: A549; test: Cytotoxicity against human A549 cells assessed as cell viability at 1 to 20 uM cotreated with BSO incubated for 24 hrs by MTT assay; assay type: functional, cell-based; conditions: dose 1-20 µM
# [28] = system: HeLa; test: Cytotoxicity against human HeLa cells harboring shTrxR1 assessed as cell viability at 1 to 5 uM incubated for 48 hrs by MTT assay; assay type: functional, cell-based; conditions: dose 1-5 µM
# [29] = AUC (0 to 24 hrs) in Sprague-Dawley rat at 10 mg/kg, po measured up to 24 hrs by LC-MS/MS analysis; assay type: ADME, organism-based; conditions: in vivo
# [30] = system: A549; test: Induction of apoptosis in human A549 cells assessed as apoptotic cell count incubated for 6 hrs by annexin V-FITC and PI staining based flow cytometric analysis; assay type: functional; conditions: dose 1-5 µM
# [31] = system: A549; test: Inhibition of colony formation in human A549 cells assessed as decrease in number of colonies incubated for 1 day in 5% CO2 at 37 degC followed by replacement with fresh culture medium for every 2 days and measured after 10 days by crystal violet staining based analysis; assay type: functional, cell-based; conditions: dose 0.25-0.5 µM
# [32] = Cys reactivity in TE buffer assessed as remaining concentration of compound incubated 1 to 4 hrs at 37 degreeC by HPLC analysis; assay type: physicochemical; conditions: TE buffer with cysteine, time 1-4 hrs, read-out: Activity
# [33] = Toxicity in male BALB/c nude mouse xenografted with human A549 cells assessed as effect on body weight 3 to 6 mg/kg, ip administered and measured every 3 days for 21 days; assay type: organism-based; conditions: in vivo, 504 h, dose 3-6 mg/kg, time 21 day
# [34] = system: A549; test: Induction of apoptosis in human A549 cells assessed as small and condensed nuclei at 1 to 5 uM incubated for 24 hrs by Hoechst 33342 staining based fluorescence microscopic analysis; assay type: functional, cell-based; conditions: dose 1-5 µM
# [35] = Toxicity in male BALB/c nude mouse xenografted with human A549 cells assessed as effect on spleen at 3 to 6 mg/kg, ip administered for 21 days; assay type: organism-based; conditions: in vivo, 504 h, dose 3-6 mg/kg, time 21 day
# [36] = system: A549; test: Inhibition of TrxR in human A549 cells assessed as decrease in green fluorescence intensity incubated for 24 hrs by TRFS-green staining based fluorescent microscopic analysis; assay type: cell-based; conditions: dose 1-5 µM
# [37] = Cytotoxicity against human LO2 cells assessed as cell viability at 1 to 20 uM incubated for 24 hrs by MTT assay; assay type: toxicity, cell-based, L02
# [38] = Half life in Sprague-Dawley rat at 10 mg/kg, po measured up to 24 hrs by LC-MS/MS analysis; assay type: ADME, organism-based; conditions: in vivo
# [39] = species: Homo sapiens; test: Inhibition of TrxR U498C mutant (unknown origin) incubated for 2 hrs in presence of NADPH by DTNB assay
# [40] = species: Homo sapiens; test: Inhibition of TrxR (unknown origin) assessed as remaining activity at 50 uM incubated for 2 hrs in presence of NADPH by DTNB assay relative to control
structure (smiles),measurement,setting,value
c1ccc2c(c1)cnc1ccccc12 [PHENANTHRIDINE],IC50,[1],> 50 µM
same,IC50,[2],> 50 µM
same,IC50,[3],> 50 µM
same,IC50,[4],> 50 µM
COc1cc2ncc3ccccc3c2c(OC)c1OC,IC50,[1],> 50 µM
same,IC50,[2],> 50 µM
same,IC50,[3],> 50 µM
same,IC50,[4],> 50 µM
COc1cc(OC)c2c3ccccc3c[n+](C)c2c1.[I-],remaining at 50 µM,[5],94%
same,Activity,[6],Active
same,Activity,[7],Dose-dependent-effect
same,Activity,[8],Dose-dependent-effect
same,Activity,[9],Dose-dependent-effect
same,Activity,[10],Non-toxic
same,Activity,[11],Non-toxic
same,Tmax,[12],2 h
same,Activity,[13],Dose-dependent-effect
same,Activity,[14],~50%
same,Activity,[15],inactive
same,TGI,[16],65.49%
same,IC50,[1],2.1 µM
same,Activity,[17],Active
same,Activity,[18],Non-toxic
same,Activity,[19],Active
same,Activity,[20],Non-toxic
same,IC50,[21],3.94 µM
same,Activity,[22],Dose-dependent-effect
same,Activity,[23],Dose-dependent-effect
same,Activity,[24],inactive
same,Activity,[25],Active
same,Activity,[26],Dose-dependent-effect
same,Activity,[27],Active
same,Activity,[28],Active; Compound Exhibited Increased Sensitivity Compared To Hela-Shnt Cells (Negative Control)
same,IC50,[2],10.2 µM
same,AUC,[29],1060 ng·h/mL
same,Activity,[30],Dose-dependent-effect
same,IC50,[3],5 µM
same,inhibition,[31],Dose-dependent-effect
same,remaining at 50 µM,[32],102%
same,IC50,[4],3.4 µM
same,Activity,[33],Non-toxic
same,Activity,[34],Active
same,Activity,[35],Non-toxic
same,inhibition,[36],Dose-dependent-effect
same,IC50 at 24 h,[37],> 20 µM
same,half-life,[38],2.58 h
same,inhibition,[39],Active; Minimal Inhibition Was Observed
c1ccc2c(c1)cnc1c3ccccc3ccc21,Activity,[40],93%
same,IC50,[1],> 50 µM
same,IC50,[3],> 50 µM
same,IC50,[4],> 50 µM
COc1ccc2c(c[n+](C)c3c4cc5c(cc4ccc23)OCO5)c1OC [CHELERYTHRINE CHLORIDE],IC50,[1],8 µM
same,IC50,[2],14.9 µM
same,IC50,[3],8.3 µM
same,IC50,[4],9.6 µM
COc1ccc2c(c1)c1ccccc1c[n+]2C,IC50,[1],17.6 µM
same,IC50,[2],> 50 µM
same,IC50,[3],19.5 µM
same,IC50,[4],19.5 µM
COc1ccc2ncc3ccccc3c2c1,IC50,[1],> 50 µM
same,IC50,[2],> 50 µM
same,IC50,[3],> 50 µM
same,IC50,[4],> 50 µM
Cc1ccc2ncc3ccccc3c2c1,IC50,[1],> 50 µM
same,IC50,[2],> 50 µM
same,IC50,[3],> 50 µM
same,IC50,[4],> 50 µM
C[n+]1cc2c3c(ccc2c2ccc4cc5c(cc4c21)OCO5)OCO3 [SANGUINARIUM CHLORIDE],IC50,[1],6.9 µM
same,IC50,[2],23 µM
same,IC50,[3],2.6 µM
same,IC50,[4],2.4 µM
COc1cc2c(c(OC)c1OC)c1ccccc1c[n+]2C,IC50,[1],16.9 µM
same,IC50,[2],> 50 µM
same,IC50,[3],21.9 µM
same,IC50,[4],22.5 µM
COc1cc(OC)c2c(c1)ncc1ccccc12,IC50,[1],> 50 µM
same,IC50,[2],> 50 µM
same,IC50,[3],> 50 µM
same,IC50,[4],> 50 µM
Cc1ccc2c(c1)c1ccccc1c[n+]2C,IC50,[1],18.5 µM
same,IC50,[2],> 50 µM
same,IC50,[3],15 µM
same,IC50,[4],12.3 µM
C[n+]1cc2ccccc2c2ccc3ccccc3c21,Activity,[40],64%
same,IC50,[1],7.3 µM
same,IC50,[3],5.4 µM
same,IC50,[4],5.2 µM
CN1Cc2ccccc2-c2ccc3ccccc3c21,Activity,[40],97%
same,IC50,[1],> 50 µM
same,IC50,[3],> 50 µM
same,IC50,[4],> 50 µM
COc1cc2c[n+](C)c3c4cc5c(cc4ccc3c2cc1OC)OCO5 [NITIDINE CHLORIDE],IC50,[1],4 µM
same,IC50,[21],12.2 µM
same,IC50,[2],38.2 µM
same,IC50,[3],1.8 µM
same,IC50,[4],1.7 µM
C[n+]1cc2ccccc2c2cc(F)ccc21,IC50,[1],> 50 µM
same,IC50,[2],> 50 µM
same,IC50,[3],34.7 µM
same,IC50,[4],31.4 µM
Fc1ccc2ncc3ccccc3c2c1,IC50,[1],> 50 µM
same,IC50,[2],> 50 µM
same,IC50,[3],> 50 µM
same,IC50,[4],> 50 µM
C[n+]1cc2ccccc2c2ccccc21,IC50,[1],35.8 µM
same,IC50,[2],> 50 µM
same,IC50,[3],32.3 µM
same,IC50,[4],28 µM
